Laboratory results from patent EP0645379A2, “Benzoylacetylene derivatives” (priority 1993, dated 1995).
Where a name gives a salt, the structure may show the parent alone. Read-outs that look alike come from different tables or passages of the source.

Experiments:
[1] = tested on: KB cell; experiment: Cancer cell growth inhibitory activity (KB cells, MTT colorimetric determination); assay type: cell-based, human
Method: In order to evaluate tyrosine kinase inhibitory activity and cancer cell growth inhibitory activity for tyrosine kinase inhibitor of the invention, tests were carried out in partially purified human EGF (epidermal growth factor) receptor tyrosine kinase activity detemination system and in a cell incubation system using human cancer cells. Furthermore, in order to compare and evaluate strength of inhibitory activity, relatively higher active ones amongst known tyrosine kinase inhibitors disclosed in patents or literatures were tested simultaneously.
Accordingly, the KB cell was used to evaluate the effect of test compounds on the growth of cultured cancer cells.
KB cells were plated on a 96-well dish (2.5x 10^3 cell/well) and cultured for 24 hours at 37 ° C under 5% C02 atmosphere in DMEM:F12 (1:1) medium containing 10% FCS, 50 µg/ml penicillin, and 50µg/ml streptomycin. To the culture medium was added a test compound dissolved in DMSO (DMSO final concentration < 0.1%), and the cells were cultured for three days under the same conditions. The test compound was exchanged every 24 hours together with the culture medium.
The amount of living cells were measured by calorimetric determination at wave lengths of 550 nm and 650 nm after developing colour by MTT (3-[4,5-Dimethylthiazol-2-yl]-2,5-diphenyltetrazolium bromide), in accordance with the method of Michael C. Alley et al. (Cancer Research 48 589, 1988).
Cancer cell growth inhibitory activity (CCGIA) was determined according to the following equation. [formula] Symbols "a" and "b" represent the colorimetric values determined in the cancer cell growth assay with and without the test compounds, respectively.

[2] = biological target: T1, partially purified human EGF (epidermal growth factor) receptor tyrosine kinase (Homo sapiens, UniProt P00533); experiment: biochemical
T1 construct: The cell membrane fraction, a partially purified EGF receptor, was used as an enzyme source; endogenous in cells; host or cells: A431 human epidermoid carcinoma cells (membrane fraction, 10000xg pellet)

[3] = Homo sapiens, 72 h; Table-3; KB cells, three days culture, MTT; 3) fumarate, 4) hydrochloride
[4] = Table-2 continued; […]; 4) hydrochloride, read-out: Tyrosine kinase inhibitory activity (IC50, μ)
[5] = Table-2; […]; 3) fumarate, 4) hydrochloride, read-out: Tyrosine kinase inhibitory activity (IC50)

T1 sequence (P01133 971-1023): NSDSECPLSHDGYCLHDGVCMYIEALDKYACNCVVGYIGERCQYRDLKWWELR
T1 sequence (P00533 25-1210): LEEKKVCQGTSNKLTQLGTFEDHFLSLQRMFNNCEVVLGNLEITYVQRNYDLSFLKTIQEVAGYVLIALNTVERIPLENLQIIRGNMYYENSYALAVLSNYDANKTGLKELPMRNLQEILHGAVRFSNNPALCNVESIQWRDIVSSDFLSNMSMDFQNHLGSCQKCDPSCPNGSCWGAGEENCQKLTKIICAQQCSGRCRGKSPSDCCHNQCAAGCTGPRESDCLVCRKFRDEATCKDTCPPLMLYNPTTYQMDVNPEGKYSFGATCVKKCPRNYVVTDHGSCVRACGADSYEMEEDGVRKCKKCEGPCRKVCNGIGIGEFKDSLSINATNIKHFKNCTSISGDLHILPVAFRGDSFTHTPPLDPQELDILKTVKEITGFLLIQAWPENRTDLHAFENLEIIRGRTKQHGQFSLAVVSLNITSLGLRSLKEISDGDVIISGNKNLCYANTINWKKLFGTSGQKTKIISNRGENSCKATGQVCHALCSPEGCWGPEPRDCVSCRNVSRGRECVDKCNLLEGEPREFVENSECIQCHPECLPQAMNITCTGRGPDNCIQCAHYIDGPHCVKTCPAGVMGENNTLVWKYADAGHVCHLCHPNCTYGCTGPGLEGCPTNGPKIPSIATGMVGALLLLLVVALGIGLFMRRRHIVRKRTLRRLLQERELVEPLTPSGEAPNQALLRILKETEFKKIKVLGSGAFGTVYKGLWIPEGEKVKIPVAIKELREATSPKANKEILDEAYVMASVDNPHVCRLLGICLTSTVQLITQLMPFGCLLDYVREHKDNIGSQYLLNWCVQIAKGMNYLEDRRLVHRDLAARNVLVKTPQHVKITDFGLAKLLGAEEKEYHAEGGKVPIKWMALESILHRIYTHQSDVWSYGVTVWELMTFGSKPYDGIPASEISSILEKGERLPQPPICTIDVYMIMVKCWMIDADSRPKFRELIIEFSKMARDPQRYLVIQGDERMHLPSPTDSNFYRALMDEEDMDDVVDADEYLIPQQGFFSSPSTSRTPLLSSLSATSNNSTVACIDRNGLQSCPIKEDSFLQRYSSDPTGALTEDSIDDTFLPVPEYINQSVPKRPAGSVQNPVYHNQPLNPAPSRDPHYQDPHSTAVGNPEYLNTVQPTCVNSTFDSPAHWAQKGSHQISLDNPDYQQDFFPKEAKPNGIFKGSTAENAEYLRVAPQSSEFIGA

SMILES	IC50 [1, 3] [nM]	IC50 [2, 4] [nM]	IC50 ([1]; Table-3; KB cells, three days culture, MTT; 3) fumarate, 4) hydrochloride) [nM]	IC50 [2, 5] [nM]
COc1ccc(C(=O)C#CC(C)(C)NCc2ccccc2)cc1OC [compound 647]	790	190		
COc1ccc(C(=O)C#CC(C)(C)NC(=O)OCc2ccc[n+](C)c2)cc1OC [compound 650]			6500	
COc1ccc(C(=O)C#CCN2C(C)(C)CCCC2(C)C)cc1OC [compound 313]	1000			180
COc1ccc(C(=O)C#CC(C)(C)N2CCCCC2)cc1OC [compound 477]	640			1300
COc1cccc(C(=O)C#CC(C)(C)N2CCCCC2)c1OC [compound 664]	680	930		
CC(C)(C#CC(=O)c1cc2c(cc1[N+](=O)[O-])OCO2)N1CCCCC1 [compound 501]	1480			
COc1ccc(C(=O)C#CC(C)(C)N(C)C)cc1OC [compound 402]	930	330		
COc1ccc(C(=O)C#CCN(C(C)C)C(C)C)cc1OC [compound 242]	2100			35
CN(C)c1ccc(C(=O)C#CC(C)(C)N2CCCCC2)cc1 [compound 485]	690			
CC(C)(C)c1cc(C(=O)C#CC(C)(C)N2CCCCC2)cc(C(C)(C)C)c1O [compound 667]	120			
COc1ccc(C(=O)C#C[Si](C)(C)C)cc1OC [compound 633]	14500			
COc1ccc(C(=O)C#CC(C)(C)N)cc1OC [compound 395, 4-amino-1-(3,4-dimethoxy)phenyl-1-oxo-4-methyl-2-pentyne hydrochloride]				39
COc1ccc(C(=O)C#CC(C)(C)N2CCCCC2)cc1 [compound 476]	550			
COc1cc(C(=O)C#CC(C)(C)N2CCCCC2)cc2c1OCO2 [compound 500]	480			350
CC(C)(C#CC(=O)c1ccc2c(c1)OCO2)N1CCCCC1 [compound 482]	300			
COc1ccc(C(=O)C#CC(C)(C)NC(=O)OCc2ccccc2)cc1OC [compound 619]	1100			660
CC(C)(C#CC(=O)c1ccc(S(C)(=O)=O)cc1)N1CCCCC1 [compound 666]	2200	2600		
COc1ccc(C(=O)C#CC(=O)Nc2ccccc2)cc1OC [compound 197]				1000
COc1ccc(C(=O)C#CC(C)(C(C)C)N(C)CCCO)cc1OC (centres unmarked) [compound 655]	2100			
COc1ccc(C(=O)C#CC(C)(C)Nc2cccc(Cl)c2)cc1OC [compound 642]	1500	96		
N#CC(=Cc1ccc(O)c(O)c1)C(=O)Nc1ccccc1 [[drawing] 1)]	17000			
COc1ccc(C(=O)C#CC(C)(C)C)cc1OC [compound 8]	2200			
COc1ccc(C(=O)C#CC(O)(C(C)C)C(C)C)cc1OC [compound 627]	680			
COc1ccc(C(=O)C#CC(C)(NCCCO)C(C)C)cc1OC (centres unmarked) [compound 654]	1000	940		

SMILES	IC50 [1, 3] [nM]	IC50 [2, 4] [nM]	IC50 ([1]; Table-3; KB cells, three days culture, MTT; 3) fumarate, 4) hydrochloride) [nM]	IC50 [2, 5] [nM]
COc1ccc(C(=O)C#CC(C)(C)Nc2cccnc2)cc1OC [compound 646]	2800	300		
CCN(CC)CC#CC(=O)c1ccc(OC)c(OC)c1 [compound 222]	840	13		
COc1ccc(C(=O)C#CC(C)(C)Nc2ccccc2)cc1OC [compound 643]	1100	120		
COc1ccc(C(=O)C#CC(C)(C)Nc2c(C)cccc2C)cc1OC [compound 645]	3400	2200		
CCOc1cc(C=C(C#N)C(N)=O)cc(CSc2ccccc2)c1O [[drawing] 2)]	52000			3200
CCN(CC)C1(C#CC(=O)c2ccc(OC)c(OC)c2)CCCCC1 [compound 555]	460			1700
CC(C)(C#CC(=O)c1ccc(F)cc1)N1CCCCC1 [compound 483]	340			
COc1ccc(OC)c(C(=O)C#CC(C)(C)N2CCCCC2)c1 [compound 665]	270	1400		
CSc1ccc(C(=O)C#CC(C)(C)N2CCCCC2)cc1 [compound 484]	410			1300
C#CC(=O)c1ccc(OC)c(OC)c1 [compound 2]	13000			
COc1ccc(C(=O)C#CC(C)(C)NS(=O)(=O)c2ccc(OC)c(OC)c2)cc1OC [compound 652]	1300			
COc1ccc(C(=O)C#CCN2CCCCC2)cc1OC [compound 287]	1600			470
COc1ccc(C(=O)C#CC(C)(C)O)cc1OC [compound 613]	1410			150
COc1ccc(C(=O)C#CC(C)(C)NCCc2c[nH]c3ccccc23)cc1OC [compound 648]	1600	37		
CC(C)(C#CC(=O)c1ccc(Cl)c(Cl)c1)N1CCCCC1 [compound 480]	510			
CCN(CC)C(C)(C)C#CC(=O)c1ccc(OC)c(OC)c1 [compound 410]	690			730
COc1ccc(C(=O)C#CC(C)(C)NCC(C)C)cc1OC [compound 644]	2800	66		
COc1ccc(C(=O)C#Cc2ccccc2)cc1OC [compound 19]	2650			670
CCN(CC)C(C)(C#CC(=O)c1ccc(OC)c(OC)c1)C(C)C (centres unmarked) [compound 455]	560			2900
COc1ccc(C(=O)C#CCNC(=O)OC(C)(C)C)cc1OC [compound 388]	1100	69		
COc1ccc(C(=O)C#CC(C)(C)NC(=O)OCc2cccnc2)cc1OC [compound 649]	1100			960
COc1ccc(C(=O)C#Cc2ccccn2)cc1OC [compound 69]	1520			240
COc1ccc(C(=O)C#CC(C)(C)NC(=O)OCc2ccc[n+]([O-])c2)cc1OC [compound 651]	3500			660
